We go through one cell line from the supplement of paper PMC10307832.

Assay in all cases: relative viability (nuclei count vs DMSO), 5 days (fraction); higher = more cells survive
Compound in the assay “Carfilzomib + Pictilisib”: CC(C)C[C@H](NC(=O)[C@H](CCc1ccccc1)NC(=O)CN1CCOCC1)C(=O)N[C@@H](Cc1ccccc1)C(=O)N[C@@H](CC(C)C)C(=O)[C@@]1(C)CO1 [Carfilzomib] + CS(=O)(=O)N1CCN(Cc2cc3nc(-c4cccc5[nH]ncc45)nc(N4CCOCC4)c3s2)CC1 [Pictilisib] (partner 1 µM)
Summed up:
(§1)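 Lung cancer cell lines were seeded in 1536-well plates and dosed by pin tool the next day, with either a single drug or a fixed anchor-drug dose combined with five library-drug doses (not always all listed) spaced in √10 steps. Five days later, one step fixed the cells and stained their nuclei (final 0.05% Triton X-100, 1% formaldehyde, 1 ug/ml Hoechst), and nuclei were counted on 4× images. Relative viability is the nuclei count in treated wells divided by the count in vehicle wells, and each value is the median of duplicate plates.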

Compound in the assay “Carfilzomib + Vorinostat”: CC(C)C[C@H](NC(=O)[C@H](CCc1ccccc1)NC(=O)CN1CCOCC1)C(=O)N[C@@H](Cc1ccccc1)C(=O)N[C@@H](CC(C)C)C(=O)[C@@]1(C)CO1 [Carfilzomib] + O=C(CCCCCCC(=O)Nc1ccccc1)NO [Vorinostat] (partner 1 µM)
Summed up: as §1

Compound in the assay “Crizotinib + Pemetrexed”: C[C@@H](Oc1cc(-c2cnn(C3CCNCC3)c2)cnc1N)c1c(Cl)ccc(F)c1Cl [Crizotinib] + Nc1nc2[nH]cc(CCc3ccc(C(=O)N[C@@H](CCC(=O)O)C(=O)O)cc3)c2c(=O)[nH]1 [Pemetrexed] (partner 0.2 µM)
The procedure, abridged: as §1

Compound in the assay “Olaparib + Navitoclax”: O=C(c1cc(Cc2n[nH]c(=O)c3ccccc23)ccc1F)N1CCN(C(=O)C2CC2)CC1 [Olaparib] + CC1(C)CCC(c2ccc(Cl)cc2)=C(CN2CCN(c3ccc(C(=O)NS(=O)(=O)c4ccc(N[C@H](CCN5CCOCC5)CSc5ccccc5)c(S(=O)(=O)C(F)(F)F)c4)cc3)CC2)C1 [Navitoclax] (partner 0.5 µM)
The procedure, abridged: as §1

Compound in the assay “Olaparib + Tozasertib”: O=C(c1cc(Cc2n[nH]c(=O)c3ccccc23)ccc1F)N1CCN(C(=O)C2CC2)CC1 [Olaparib] + Cc1cc(Nc2cc(N3CCN(C)CC3)nc(Sc3ccc(NC(=O)C4CC4)cc3)n2)n[nH]1 [Tozasertib] (partner 0.1 µM)
The procedure, abridged: as §1

With NCI-H1793, the relative viability with Carfilzomib + Pictilisib (first compound 0.003162 µM) came to 0.328; with Carfilzomib + Pictilisib (first compound 0.01 µM), 0.293; in the assay with Carfilzomib + Pictilisib (first compound 0.03162 µM), 0.335; with Carfilzomib + Pictilisib (first compound 0.1 µM), 0.248; with Carfilzomib + Vorinostat (first compound 0.001 µM), 0.605; with Carfilzomib + Vorinostat (first compound 0.003162 µM) it was 1. For the same cell line, the relative viability was 0.7 with Carfilzomib + Vorinostat (first compound 0.01 µM); 0.396 with Carfilzomib + Vorinostat (first compound 0.03162 µM); 0.107 with Carfilzomib + Vorinostat (first compound 0.1 µM); 1.04 in the assay with Crizotinib + Pemetrexed (first compound 0.03162 µM); 0.902 in the assay with Crizotinib + Pemetrexed (first compound 0.1 µM); 1.2 with Crizotinib + Pemetrexed (first compound 1 µM). Besides, the relative viability with Olaparib + Navitoclax (first compound 0.08 µM) amounted to 0.406; with Olaparib + Navitoclax (first compound 0.253 µM) it was 0.421; with Olaparib + Navitoclax (first compound 2.53 µM), 0.416; with Olaparib + Navitoclax (first compound 8 µM), 0.385; with Olaparib + Tozasertib (first compound 0.08 µM), 0.324; with Olaparib + Tozasertib (first compound 0.253 µM), 0.279. Moreover, the relative viability with Olaparib + Tozasertib (first compound 2.53 µM) was 0.409; with Olaparib + Tozasertib (first compound 8 µM), 0.358.
